pEC50, pIC50, pKd: −log10 of the molar value. Like-named read-outs stand apart in the source and are kept apart here.
Assays:
[1] = biological target: T1, BCL6 Micro-tagged protein (BCL6-S-tag fusion protein) (Homo sapiens, UniProt P41182); experiment: Small molecule target engagement screening on lysates, micro-tagged BCL6 heated at Tmin; assay type: binding
T1 construct: expressed in transfected cells; host or cells: HEK293, lysate (1% Triton X-100 in TBS)
Method: HEK293 cells were transfected using Lipofectamine 2000 according to manufacturer protocol. Two days after transfection, media was removed and cells lifted by pipetting up and down using 1×TBS. Cells were centrifuged at 400 g for 4 min. The TBS wash was removed and the cells lysed with either 1% Triton X 100 in TBS for MTH1 and BCL6, or 0.5% DDM in TBS for EGFR expressing cells. Cells were lysed at 4° C. on a rotator for 1 hour and cell debris removed by gentle centrifugation for 1 minute at 6000 rpm. Lysates were transferred to a new tube and aliquots that were not used immediately in the assay were frozen at −80° C. for future use.
Small molecule compounds were dissolved in DMSO at 10 mM and serial dilutions in DMSO at 100× concentration were prepared from this stock. Lysates from cells expressing the micro-tagged (S-peptide tagged) protein were diluted with cold 1×TBS at 1/10 and 39.6 ul aliquoted to a PCR plate; […]. The heated sample (30 ul) was added and fluorescence detected using a microplate reader. The plate was read in kinetic mode (excitation=485 nm, emission=520 nm) with the PolarStar Omega 96-well plate reader.
For analysis, the RAW fluorescence signal or fluorescence change per minute was plotted with inhibitor dose on a Semi-Log scale using GraphPad Prism. Nonlinear regression analysis was used for curve fitting to identify EC50 of target engagement or apparent KD.
After 4 minutes incubation the fluorescence detected could be plotted with dose of inhibitor tested on a semi-log scale. Using nonlinear regression analysis and fitting a Sigmoidal dose-response curve (with variable slope) using GraphPad Prism identified an EC50 of Target Engagement. […] The peak fluorescence signal identified the dose of inhibitor that saturates the micro-tag protein target. At concentrations of the inhibitor above this saturating dose there was rapid cleavage of the FRET-labeled substrate resulting in loss of fluorescence signal over time (Relative Light Unit per minute (RLU/min)) and lower fluorescence detected. At concentrations below this saturating dose the micro-tag construct was denatured in the heat challenge and there was less micro-tag available for enzyme complementation resulting in lower fluorescence signal (FIG. 36A). […].

[2] = biological target: BCL6 (Homo sapiens, UniProt P41182); conditions: known value, read-out: in vitro IC50, cited from earlier work

C[C@@H]1C[C@H](C)CN(c2ncc(Cl)c(Nc3ccc4c(c3)cc(OC(C)(C)C(=O)O)c(=O)n4C)n2)C1 [BI-5273]
binding to the BCL6 micro-tag target ([1]; HEK293 lysates, heated at Tmin, 4 minutes incubation, FIG. 38B): did not bind the target
pIC50 ([2]; inactive structural analog): ~5.00

CNC(=O)COc1cc2cc(Nc3nc(N4CCC(C(=O)N(C)C)CC4)ncc3Cl)cc(OC)c2n(C)c1=O [BI-3812]
pEC50 ([1]; HEK293 lysates, heated at Tmin, fluorescence after 4 minutes incubation, FIG. 38A, read-out: EC50 of target engagement): 9.20
pKd ([1]; Saturation Binding Equation (One-site total), after 15 minutes, FIG. 39C, read-out: Apparent Equilibrium Dissociation Constant (apparent KD)): 8.80
pEC50 ([1]; after 15 minutes, FIG. 39B, read-out: EC50 of target engagement after removal of data points beyond the target saturation dose): 9.05
pIC50 ([2]; well-characterized inhibitor): ~8.52

Reference: patent US20230204594A1, “SYSTEMS AND METHODS FOR REAL-TIME CELLULAR DRUG-TARGET ENGAGEMENT” (NERD BIO LLC, priority 2021, published 2023)
